Experimental data published in article PMC9508812 (2022).

Legend:
[1] = system: GG1 (DNA, mismatch bulge abasic) CTAACGGAATG/CATTCGGTTAG; experiment: ITC; conditions: Na+ 100 mM (NaCl), 10 mM sodium cacodylate pH 7.0, 25 °C, 2.5 µM DNA, 50 µM NCD titrant
[2] = system: GG1 (DNA, mismatch bulge abasic) CTAACGGAATG/CATTCGGTTAG; experiment: NMR structure and titration; conditions: Na+ 100 mM (NaCl); 20 mM sodium phosphate pH 6.8, 283 K; slow exchange, cooperative
[3] = system: GG1 (DNA, mismatch bulge abasic) CTAACGGAATG/CATTCGGTTAG; experiment: UV melting at 260 nm; conditions: Na+ 100 mM (NaCl); 10 mM sodium cacodylate pH 7.0; 5 µM DNA, 20 µM NCD; Tm without and with NCD
[4] = system: d(CGG)10 (DNA, repeat) CGGCGGCGGCGGCGGCGGCGGCGGCGGCGG; experiment: CSI-TOF MS; conditions: NH4+ 100 mM (ammonium acetate); 50% aqueous methanol, spray -10 °C; 10 µM DNA, 50 µM NCD
[5] = system: GG1 with a T4 hairpin loop (DNA, mismatch bulge abasic) CTAACGGAATGTTTTCATTCGGTTAG; experiment: CSI-TOF MS; conditions: NH4+ 100 mM (ammonium acetate); 50% aqueous methanol, spray -10 °C; 5 µM DNA, 100 µM NCD; 1:1 complex not observed
[6] = system: GG1 (DNA, mismatch bulge abasic) CTAACGGAATG/CATTCGGTTAG; experiment: CD; conditions: Na+ 100 mM (NaCl); 10 mM sodium cacodylate pH 7.0, room temperature; 5 µM DNA, 20 µM NCD

Cc1ccc2ccc(NC(=O)OCCCNCCCOC(=O)Nc3ccc4ccc(C)nc4n3)nc2n1
apparent KD [1]: 67 nM | binding [2]: yes | Tm [3]: 21.8 °C | binding [4]: yes | binding [5]: yes | binding [6]: yes
